According to patent publication US9000027B2, “Chk1 suppresses a caspase-2 apoptotic response to DNA damage that bypasses p53, bcl-2 and caspase-3” (Dana-Farber Cancer Institute, Inc., priority 2008, dated 2015):

Columns and labels:
[1] = biological target: T1, MK-2 (Homo sapiens, UniProt P49137); assay: Western blot of MK-2 activity (Hsp-27 Ser82 phosphorylation) in irradiated HeLa cells; type: cell-based; set-up: endogenous in cells; host or cells: HeLa; conditions: irradiated HeLa cells, increasing concentrations of SB203580
Description: Protein extract (5-60 μg) was added to 4× gel loading buffer and 10× denaturing solution (Invitrogen) in appropriate proportions, and samples were incubated at 70° C. for 10 min. Samples were run at 200V for 1 hr on a 4-12% Bis-tris gradient gel (Invitrogen). After electrophoresis, samples were transferred for 1.5 hr (350 mA) to a Nitrocellulose membrane (Millipore) using a submerged transfer apparatus (Bio-Rad). Membranes were then blocked with 5% milk in Tris-buffered saline with 0.1% tween (TBST) and probed overnight at 4° C. with the following antibodies: anti-zebrafish Chk1 (diluted 1:200), anti-zebrafish Chk2 (1:200), anti-P-Cdc2 (1:1000), anti-actin (1:2000), anti-human ATR (1:500) and Stressgen anti-human-caspase-3 (1:500) for zebrafish immunoblots; and anti-caspase-2 (1:200), Upstate anti-caspase-3 (1:500), anti-P-ATM (1:500), anti-ATM (1:500), Santa Cruz anti-human Chk1 (1:1000), Santa Cruz anti-human Chk2 (1:1000), anti-P-Chk1 (1:500), anti-P-Chk2 (1:500), anti-P-H2A.X (1:2000), anti-P-cdc25C (1:1000), anti-P-HSP27 (1:1000), anti-HSP27 (1:1000), anti-P-Cdc2 (1:1000), anti-p53 (1:1000) and anti-GAPDH (1:5000) for immunoblots of human tumor cell lysates. Detailed references for all primary antibodies can be found in the ‘Antibodies’ section elsewhere herein.
Target sequence in this assay (P49137 whole entry): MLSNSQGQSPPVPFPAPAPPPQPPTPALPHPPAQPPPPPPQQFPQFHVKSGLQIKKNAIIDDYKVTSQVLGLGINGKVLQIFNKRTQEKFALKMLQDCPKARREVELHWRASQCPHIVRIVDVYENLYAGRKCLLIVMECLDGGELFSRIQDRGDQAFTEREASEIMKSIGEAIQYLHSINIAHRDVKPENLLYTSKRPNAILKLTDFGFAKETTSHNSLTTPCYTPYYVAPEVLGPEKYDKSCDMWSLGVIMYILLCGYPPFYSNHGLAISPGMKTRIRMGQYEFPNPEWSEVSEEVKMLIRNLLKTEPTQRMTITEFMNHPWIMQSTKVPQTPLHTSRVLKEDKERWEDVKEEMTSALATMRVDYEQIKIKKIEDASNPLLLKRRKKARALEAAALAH

[2] = biological target: T1, MK-2; conditions: concentration initially thought to specifically inhibit Chk1; cited from earlier work
Target sequence in this assay (P49137 whole entry, species assumed): as the sequence (P49137 whole entry) above

[3] = biological target: T2, Chk1 (Homo sapiens, UniProt O14757); conditions: concentration initially thought to specifically inhibit Chk1; cited from earlier work
T2 sequence (O14757 1-476): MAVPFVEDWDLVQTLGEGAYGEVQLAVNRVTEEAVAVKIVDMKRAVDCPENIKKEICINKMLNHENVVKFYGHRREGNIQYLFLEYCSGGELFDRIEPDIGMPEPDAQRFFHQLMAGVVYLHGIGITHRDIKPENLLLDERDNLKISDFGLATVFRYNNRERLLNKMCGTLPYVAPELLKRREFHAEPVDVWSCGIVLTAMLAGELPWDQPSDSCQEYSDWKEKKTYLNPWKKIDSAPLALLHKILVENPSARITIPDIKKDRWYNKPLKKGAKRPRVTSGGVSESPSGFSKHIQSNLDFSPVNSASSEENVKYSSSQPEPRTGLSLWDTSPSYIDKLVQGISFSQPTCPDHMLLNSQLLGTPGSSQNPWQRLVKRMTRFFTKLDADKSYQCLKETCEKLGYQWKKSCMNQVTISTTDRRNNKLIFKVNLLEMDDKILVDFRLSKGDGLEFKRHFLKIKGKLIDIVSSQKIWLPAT

[4] = system: zebrafish ATR; assay: MO knockdown efficiency: western blot of ATR levels; type: in vivo; conditions: atr MO 0.25 mM, 25.5 hpf lysates
Excerpt: (§1) (A) Western blot of 25.5 hpf zebrafish protein lysates from non-injected and atr MO-injected embryos using an anti-human ATR antibody recognizing an internal peptide that is highly conserved in zebrafish Atr. Detection of a high molecular weight zebrafish band showing the same migration pattern as human ATR (lane 1) strongly supports crossreactivity of the antibody with zebrafish ATR (the predicted molecular weight of zebrafish ATR, 300 kDa, matches that of human ATR). […] The MO concentration used in the MO screen (FIG. 1) and epistasis analyses (FIG. 5), 0.25 mM, leads to a >50% reduction in ATR levels compared to control (compare lanes 5 with 2 and 3). (B-E) Gel migration profiles of RT-PCR products from non-injected and MO-injected embryos using primers in exons flanking the targeted exon (Table 1). All bands were excised and sequenced. […] All RT-PCRs are semi-quantitative with β-actin amplicon serving as loading control. […] Either aberrant splice product results in the occurrence of an inappropriate early stop codon (as a result of in-frame reading of the intron or of a frameshift caused by exon skipping), which is predicted to result in an early truncation of the ATM protein before the PIKK kinase domain. […] As exemplified in lane 4, this same MO concentration could lead to stronger knockdowns, but in this case the embryos could not be scored in the assay. […]

[5] = system: p53^e7/e7;chk1^MO embryos; assay: Epistasis analyses in irradiated p53^e7/e7;chk1^MO embryos (live AO assay); type: in vivo; conditions: 12.5 Gy
Description: To identify such molecules, we performed in vivo epistasis analyses in zebrafish by knocking down or forcing the expression of candidate pathway contributors in p53^e7/e7;chk1^MO embryos.
Morpholino oligonucleotides (MOs) synthesized by Gene Tools™ LLC, were resuspended in sterile water at a concentration of 1 mM and delivered into zebrafish embryos at the one-cell stage by microinjection. The injection apparatus consisted of a heat-pulled, filamentous RNAse free capillary tube positioned by a micromanipulator (Narishige™ M-125), through which the MO was pressure-injected using a nitrogen air supply controlled by a microinjector (Harvard Apparatus™ PLI-100). MOs were delivered into the yolk of embryos at the one cell stage, just below the cytoplasm. For each previously unpublished MO, the working concentration was determined as the highest dose compatible with normal zebrafish development in the p53^e7/e7 background (maximal subtoxic concentration). […] 100 ng of bcl-xl mRNA in vitro transcribed from full-length zebrafish bcl-xl cDNA cloned into pCS2 were injected as described above. All embryos were grown at 28.5° C. in egg water (5 mM NaCl, 0.17 mM KCl, 0.4 mM CaCl2 and 0.16 mM MgSO4). Knockdown efficiencies for the chk1, chk2, atm, atr, p63, casp8 and casp9 MOs at their maximal subtoxic concentrations are shown in FIG. 10. The sequences of the PCR primers used for RT-PCR-based monitoring of MO efficiencies are available upon request.
Live zebrafish embryos were dechorionated in pronase (2.0 mg/mL in egg water) for 3 to 5 min and rinsed five times in egg water at 18 hpf. […] At 24 hpf, embryos were incubated in […] Acridine Orange (AO; Sigma A-6014) in egg water for 30 min at 28.5° C., followed by 3 quick rinses and three 10-min washes in egg water. 5-10 AO-treated embryos were anesthetized in Tricaine ([…]; 3-amino benzoic acid ethylester from Sigma, A-5040) and mounted laterally on a glass slide in warm 0.5% agarose in egg water by streaking a thin layer of the warm agarose across the surface of the slide, and gently pulling the embryos across the agar with a transfer pipette. Lateral images of each zebrafish were acquired on a Zeiss Axioplan2 fluorescence microscope (5× lens), using OpenLab software and a Hammamatsu C4742-95 digital camera. All images were then converted to 8-bit grayscale in NIH ImageJ using the Image>Type>8-bit command. Next, we cropped the images using the Polyonal Selection tool and the Image>Crop functions to include only the trunk of the animal from the head until the beginning of the yolk tube (MO screen; FIG. 1B) or along the entire spinal cord (epistasis analyses; FIGS. 6A & 6D). The area outside of the selected region of interest was cleared using the Edit>Clear Outside command to create a distinct boundary around the area of interest (this is important as it allows the area of interest to be precisely selected after applying the threshold). Next, we split the acquired images into features of interest and background using the Image>Adjust>Threshold function in NIH ImageJ. We then set the maximum threshold of each image to 255 (the lower slide bar in the Threshold window), and adjusted the minimum threshold to the optimized threshold (see below). The threshold was applied using the Black & White display option, with the following Lut options applied; Thresholded pixels to foreground color; Remaining pixels to background color and Black foreground, white background. […] Next, we re-selected the region of interest on the thresholded image, following the bounded image carefully, and analyzed the pixels of the image using the Analyze>Analyze Particles function. The Minimum Size was set to 1px, the Maximum Size was set to the maximum value of 999999 and the Masks option was selected under the Show pull-down menu. The following extended options were also selected: Display Results; Clear Results; Summarize, Size Distribution and Record Starts. […]

[6] = system: casp9; assay: MO knockdown efficiency: RT-PCR of casp9 transcripts; type: in vivo, zebrafish; conditions: maximal subtoxic MO concentration
Excerpt: as §1

[7] = system: p53^e7/e7 mutant embryos; assay: Morpholino screen for suppressors of p53^e7/e7 radioresistance (live AO assay); type: in vivo, zebrafish; conditions: p53^e7/e7, 12.5 Gy
Description: We used morpholino antisense oligonucleotides (MOs) to knock down the expression levels of 8 zebrafish S- and G2-checkpoint kinases in p53^e7/e7 mutant embryos and assessed the ability of each knockdown to restore cell death (AO reactivity) at 7.5 hours post-IR (hpIR). We also tested several double-knockdown combinations, as well as knockdowns of non-kinase checkpoint regulators (p21^waf1/cip1 and smc1). For each knockdown, we scored a minimum of 50 embryos and quantified AO staining in at least 5 embryos. To avoid the isolation of false-positives, we adjusted the concentrations of each MO to the maximal dose compatible with normal embryonic development in the p53^e7/e7 background.
Morpholino oligonucleotides (MOs) synthesized by Gene Tools™ LLC, were resuspended in sterile water at a concentration of 1 mM and delivered into zebrafish embryos at the one-cell stage by microinjection. […] For each previously unpublished MO, the working concentration was determined as the highest dose compatible with normal zebrafish development in the p53^e7/e7 background (maximal subtoxic concentration). […]
Live zebrafish embryos were dechorionated in pronase (2.0 mg/mL in egg water) for 3 to 5 min and rinsed five times in egg water at 18 hpf. […] Lateral images of each zebrafish were acquired on a Zeiss Axioplan2 fluorescence microscope (5× lens), using OpenLab software and a Hammamatsu C4742-95 digital camera. […]

For `C[S+]([O-])c1ccc(-c2nc(-c3ccncc3)c(-c3ccc(F)cc3)[nH]2)cc1` (centres unmarked) [SB203580], which “phosphorylated Hsp-27 at Ser82 versus native Hsp-27” value [1] is on record?
The value was “reduction in the abundance of phosphorylated Hsp-27 at Ser82”.

What does the source list for `CN[C@@H]1C[C@H]2O[C@@](C)([C@@H]1OC)n1c3ccccc3c3c4c(c5c6ccccc6n2c5c31)C(=O)N[C@H]4O` [UCN-01, 7-hydroxystaurosporine]?
MK-2 inhibition [2]: inhibits both Chk1 and MK-2; Chk1 inhibition [3]: inhibits both Chk1 and MK-2

For “atr MO: morpholino against zebrafish atr atg/5'UTR (SEQ ID NO: 15) (TGACATTTCTAGTCCTTGCTCCATC; antisense; all phosphorodiamidate morpholino (PMO))”, which “reduction in ATR levels compared to control” value [4] is on record?
Its value is greater than 50%.

And the “reduction of the mean p53^e7/e7;chk1^MO AO response” value [5]?
Its value is roughly 90%.

Which “effect on IR-induced cell death (AO labeling) of p53^e7/e7;chk1^MO embryos” value [5] does the source give for “casp9 MO: morpholino against zebrafish casp9 splice donor site (SEQ ID NO: 26) (GATGGAAAAACACACTTACGGACTG; antisense; all phosphorodiamidate morpholino (PMO))” here?
Its value is “complete absence of effects”.

And the casp9 knockdown [6]?
Its casp9 knockdown is roughly 50%.

For “chk1 mismatch MO: 5 base-pair mismatch version of chk1 MO, agCcaGagcGattatCcaatGttcg (SEQ ID NO: 12) (AGCCAGAGCGATTATCCAATGTTCG; all phosphorodiamidate morpholino (PMO))”, which “radiosensitization of p53 mutants” value [7] is on record?
The value was “failed to radiosensitize p53 mutants”.
